The values that follow come from patent publication US8212016B2, “NPC1L1 orthologues” (Schering Corporation, priority 2006, dated 2012).

pKd, pKi: −log10 of the molar value. Where two headings read alike, the source gives them in different places.

The target of assay [1] is T1, monkey NPC1L1 (Macaca mulatta, UniProt A0MJA5). The assay is described as follows: Fluorescence NPC1L1 binding assay, HEK-293 cells, BODIPY-labeled compound 1. On the set-up: species or system rhesus monkey. The protocol:
Cell Culture and Membrane Preparation. Each plasmid pCR3.1 harboring NPC1L1 was prepared using standard molecular biology protocols. Stable cell lines expressing human, rhesus monkey, mouse, rat, hamster, canine or rabbit NPC1L1 were generated using Lipofectamine 2000 transfection reagent in HEK-293 cells according to the manufacturer's protocol. Cells were maintained in DMEM supplemented with 10% FBS, 100 U/ml pen/strep, and 500 μg/ml geneticin at 37° C., 5% CO2. All cell culture reagents were obtained from Invitrogen Life Technologies, (Carlsbad, Calif.). Cell membranes were prepared by lysing cells in 5 mM HEPES with protease inhibitors (Complete™ Protease Inhibitor Cocktail Tablets; Roche Diagnostics Corp., Indianapolis Ind.) for 15 min at 4° C. A membrane pellet was obtained by centrifuging the cell lysates at 12,000×g for 25 min. The membranes were resuspended in 5 mM HEPES with protease inhibitors and triturated with a 21G needle.
Fluorescence. Cells were plated into 384-well black/clear plates (BD Biosciences, Bedford Mass.) for binding experiments the following day. The media was aspirated. […] Media (20 μl) containing the indicated concentration of compound was then added to the wells. […] The binding reaction was allowed to proceed for 4 hours at 37° C. Subsequently the media was aspirated and the cells washed once with PBS.

A further assay deals with T2, rat NPC1L1 (Rattus norvegicus, UniProt Q6T3U3, A349V/E317P/G318E/K324N/L297S).
T2 construct: expressed in transfected cells
The description is as above. The following applies: Rat NPC1L1, competition with compound 1; read-out: Ki.

The next assay deals with hamster NPC1L1 (Mesocricetus auratus, UniProt A0MJA8). The assay is described as above.
Assay [2] relates to ^14C-cholesterol absorption. The assay is described as follows: Acute cholesterol absorption assay. The assay is classed as in vivo. The following applies: rat, intraduodenal; read-out: rat ED50, inhibition of cholesterol absorption. The protocol: Acute cholesterol absorption assay. ^14C-cholesterol absorption was determined acutely in rats using conditions previously described (Van Heek et al., J. Pharmacol. Exp. Ther. 283: 157-163 (1997)). Compounds were dissolved in rat bile and delivered (1.0 ml) intraduodenally by bolus injection via an intestinal catheter, followed by 1.0 ml saline rinse (0.9%). Following a 30 min incubation, a cholesterol emulsion containing 3 mg cholesterol and 2 μCi ^14C-cholesterol (3 ml) was delivered to each rat as a bolus via intestinal catheter, followed by 1 ml saline rinse. Animals were sacrificed 90 min later and ^14C-cholesterol levels in plasma, liver, intestinal contents, and intestinal wall were determined.

In assay [3] the target is T1, monkey NPC1L1. The assay is described as follows: Radioligand binding of [3H]-glucuronidated ezetimibe (compound 4) to cell membranes. On the set-up: species or system rhesus monkey. The protocol:
Cell Culture and Membrane Preparation. […] Cells were maintained in DMEM supplemented with 10% FBS, 100 U/ml pen/strep, and 500 μg/ml geneticin at 37° C., 5% CO2. All cell culture reagents were obtained from Invitrogen Life Technologies, (Carlsbad, Calif.). Cell membranes were prepared by lysing cells in 5 mM HEPES with protease inhibitors (Complete™ Protease Inhibitor Cocktail Tablets; Roche Diagnostics Corp., Indianapolis Ind.) for 15 min at 4° C. A membrane pellet was obtained by centrifuging the cell lysates at 12,000×g for 25 min. […] Radioligand. […] Natl. Acad. Sci. […] Reactions were performed in binding buffer (5 mM HEPES, 5.5 mM glucose, 117 mM NaCl and 5.4 mM KCl, pH 7.4). Cell membranes (50 μg in 20 μl) were added to each well. […] Binding reactions were incubated for 2 hours at 37° C. Samples were transferred to Unifilter-96 GF/C plates (Perkin Elmer, Wellesley Mass.) and filtered using a Brandel harvester (Gaithersburg Md.). […] Liquid scintillant (50 μl; Microscint-20, Perkin Elmer, Wellesley Mass.) was added and the bound radioactivity was measured using a microplate scintillation counter.

On to `O=C(O)[C@H]1O[C@@H](Oc2ccc([C@@H]3[C@@H](CC[C@H](O)c4ccc(F)cc4)C(=O)N3c3ccc(F)cc3)cc2)[C@H](O)[C@@H](O)[C@@H]1O` [compound 4, glucuronidated ezetimibe], for which the pKi on monkey NPC1L1 [1] (Monkey NPC1L1, competition with compound 1, read-out: Ki) was 7.04; at rat NPC1L1, 6.45; at hamster NPC1L1 (Hamster NPC1L1, competition with compound 1, read-out: Ki), 6.43; on hamster NPC1L1 (Table 3, Hamster, read-out: Ki Hamster NPC1L1), 6.43. Besides, the “difference in affinity versus ezetimibe (compound 3)” value at monkey NPC1L1 [1] (monkey NPC1L1) is given as roughly 10 fold. Moreover, the ED50 in assay [2] was 1.9 µg/kg. Besides, on monkey NPC1L1 [3], the pKd was 6.99.
